Laboratory results as given in US8691865B2 (AbbVie Inc., priority 2008, dated 2014).

Key:
human Cav2.2 = human Cav2.2 (Homo sapiens, UniProt Q00975); test: Assessment of calcium channel activity using FLIPR (Ca2+ influx in IMR32 cells); format: cell-based
Procedure, shortened: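 Human neuroblastoma IMR32 cells were seeded at 1−1.2×10^5 cells/well and cultured 48 h at 37 °C before FLIPR calcium influx measurement. Percent inhibition at each concentration was calculated against the no-inhibitor signal, and IC50 came from sigmoidal dose-response fits.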

Sprague Dawley rats [1] = test: Analgesic effect against neuropathic pain, Bennett model (chronic constriction injury); format: in vivo; conditions: Rattus norvegicus, 1 h; 30 mg/kg po; mechanical allodynia 60 minutes after administration; CCI rats; read-out: % MPE
Protocol: (iii) In Vivo Data—Determination of Analgesic Effect Against Neuropathic Pain—Bennett Model
Animals were prepared for testing, by use of a surgical procedure that induces neuropathic pain in one paw. IACUC guidelines for rodent survival surgery are followed. All surgical procedures are conducted on a clean, uncluttered surgical station. The area is wiped with a 70% ethanol solution before and after use. All instruments are sterilized by either autoclave or chemical sterilant (such as 2% glutaraldehyde >10 hr). Surgeons wear sterile gloves (for the initial procedure), clean lab coat or scrubs, hairnet or cap, and a half-mask respirator (when not working under a hood). Surgeons thoroughly wash their hands prior to donning sterile gloves. Gloves are disinfected in-between animals by cleansing with povidone iodine, chlorhexidine or 70% alcohol for at least 30 seconds. If multiple surgeries are performed, the instruments are cleaned and sterilized between procedures with hot glass beads (>10 seconds). To prevent thermal or chemical burns, the instruments are cooled by rinsing in sterile saline before use.
To minimize post-operative dehydration/maintain blood volume during the surgery, warmed sterile saline or Lactate Ringers solution at 10-15 mL/kg is administered subcutaneously immediately before or after surgery. This facilitates better renal function and presumably anesthesia product excretion post surgery. For all surgical procedures, anesthesia is induced with 4-5% isoflurane. Anesthesia is be maintained during surgery with 1-3% isoflurane. Following induction, the surgical site is carefully shaved and the exposed area is aseptically prepared with povidone-iodine scrub solution and 70% ethanol 2-3 times.
After site sterilization and anesthetic procedures outline above are completed, a 1.5 cm incision is made at the mid-thigh level to expose the biceps femoris and gluteous superficialis (right side), which are then separated by blunt dissection. The common sciatic nerve is exposed, isolated, and loosely ligated by four 5-0 chromic gut ligatures with <1 mm spacing between each. The surgical site is closed in layers—muscle is closed with 6.0 absorbable sutures, and the skin closed with wound clips. Animals are allowed to recover on a warming plate and are returned to their home cages when fully ambulatory. Animals are not be used for testing until at least 10 days following surgery.
Filament strengths used are: 0.4, 0.6, 1.0, 2, 4, 6, 8, and 15 g. […] Filaments are applied perpendicular to the mid-plantar paw surface with enough force to cause slight buckling and held in place for 6-8 seconds. Positive responses include an abrupt withdrawal of the paw from the stimulus or flinching behavior immediately following removal of the stimulus. The maximum force applied will be 15 g. […] All compounds were orally administered in 10% dimethyl sulfoxide/polyethylene glycol at a volume of 2.0 mL/kg, and mechanical allodynia was determined 60 minutes following compound administration. Data are reported as log g values and the percentage of maximum possible effect (% MPE) is calculated using log g values with the formula: % MPE=(log [observed PWT in grams]−log [mean PWT vehicle])/(log [15]−log [mean PWT vehicle])*100 All statistical procedures are run on log g values.

Sprague Dawley rats [2] = test: Capsaicin induced secondary mechanical hyperalgesia model; format: in vivo; conditions: po, 1 h, read-out: % inhibition @ 30 mg/kg p.o.; 30 mg/kg p.o. 60 minutes before testing; SMH measured 180 minutes after capsaicin; rat
Protocol: (ii) In Vivo Data—Capsaicin Induced Secondary Mechanical Hyperalgesia Model:
Sprague Dawley rats were briefly restrained, and capsaicin was administered at 10 μg in 10 μL of vehicle by intraplantar injection into the center of the right hind paw. Secondary mechanical hyperalgesia (SMH) was measured at the heel away from the site of injection 180 minutes following capsaicin exposure. Compounds and gabapentin (positive control), were administered p.o. 60 minutes before testing (2 hours after capsaicin) or i.p. 30 minutes before testing (2.5 hours after capsaicin). SMH was measured using calibrated von Frey filaments (Stoelting, Woodale, Ill.). Following the 1 hour habituation in the testing room, rats were moved to individual plexiglass chambers that sit on top of a wire mesh to allow for access for stimulation of the plantar surface of the hind paws. Rats were allowed to acclimate to the new chambers for 15 minutes before the onset of testing. The paw withdrawal threshold was determined by increasing and decreasing stimulus intensity (force: g) and calculated using Dixon's up-down method (Chaplan, S. R.; Bach, F. W.; Pogrel, J. W.; Chung, J. M.; Yaksh, T. L.; J. Neuroscience Methods 1994, 53(1), 55-63.). The filaments (maximum force of 15.0 g) were held in place for 8 seconds or until there was a withdrawal response from the mechanical stimulation.

Sequence of human Cav2.2 (Q00975 whole entry): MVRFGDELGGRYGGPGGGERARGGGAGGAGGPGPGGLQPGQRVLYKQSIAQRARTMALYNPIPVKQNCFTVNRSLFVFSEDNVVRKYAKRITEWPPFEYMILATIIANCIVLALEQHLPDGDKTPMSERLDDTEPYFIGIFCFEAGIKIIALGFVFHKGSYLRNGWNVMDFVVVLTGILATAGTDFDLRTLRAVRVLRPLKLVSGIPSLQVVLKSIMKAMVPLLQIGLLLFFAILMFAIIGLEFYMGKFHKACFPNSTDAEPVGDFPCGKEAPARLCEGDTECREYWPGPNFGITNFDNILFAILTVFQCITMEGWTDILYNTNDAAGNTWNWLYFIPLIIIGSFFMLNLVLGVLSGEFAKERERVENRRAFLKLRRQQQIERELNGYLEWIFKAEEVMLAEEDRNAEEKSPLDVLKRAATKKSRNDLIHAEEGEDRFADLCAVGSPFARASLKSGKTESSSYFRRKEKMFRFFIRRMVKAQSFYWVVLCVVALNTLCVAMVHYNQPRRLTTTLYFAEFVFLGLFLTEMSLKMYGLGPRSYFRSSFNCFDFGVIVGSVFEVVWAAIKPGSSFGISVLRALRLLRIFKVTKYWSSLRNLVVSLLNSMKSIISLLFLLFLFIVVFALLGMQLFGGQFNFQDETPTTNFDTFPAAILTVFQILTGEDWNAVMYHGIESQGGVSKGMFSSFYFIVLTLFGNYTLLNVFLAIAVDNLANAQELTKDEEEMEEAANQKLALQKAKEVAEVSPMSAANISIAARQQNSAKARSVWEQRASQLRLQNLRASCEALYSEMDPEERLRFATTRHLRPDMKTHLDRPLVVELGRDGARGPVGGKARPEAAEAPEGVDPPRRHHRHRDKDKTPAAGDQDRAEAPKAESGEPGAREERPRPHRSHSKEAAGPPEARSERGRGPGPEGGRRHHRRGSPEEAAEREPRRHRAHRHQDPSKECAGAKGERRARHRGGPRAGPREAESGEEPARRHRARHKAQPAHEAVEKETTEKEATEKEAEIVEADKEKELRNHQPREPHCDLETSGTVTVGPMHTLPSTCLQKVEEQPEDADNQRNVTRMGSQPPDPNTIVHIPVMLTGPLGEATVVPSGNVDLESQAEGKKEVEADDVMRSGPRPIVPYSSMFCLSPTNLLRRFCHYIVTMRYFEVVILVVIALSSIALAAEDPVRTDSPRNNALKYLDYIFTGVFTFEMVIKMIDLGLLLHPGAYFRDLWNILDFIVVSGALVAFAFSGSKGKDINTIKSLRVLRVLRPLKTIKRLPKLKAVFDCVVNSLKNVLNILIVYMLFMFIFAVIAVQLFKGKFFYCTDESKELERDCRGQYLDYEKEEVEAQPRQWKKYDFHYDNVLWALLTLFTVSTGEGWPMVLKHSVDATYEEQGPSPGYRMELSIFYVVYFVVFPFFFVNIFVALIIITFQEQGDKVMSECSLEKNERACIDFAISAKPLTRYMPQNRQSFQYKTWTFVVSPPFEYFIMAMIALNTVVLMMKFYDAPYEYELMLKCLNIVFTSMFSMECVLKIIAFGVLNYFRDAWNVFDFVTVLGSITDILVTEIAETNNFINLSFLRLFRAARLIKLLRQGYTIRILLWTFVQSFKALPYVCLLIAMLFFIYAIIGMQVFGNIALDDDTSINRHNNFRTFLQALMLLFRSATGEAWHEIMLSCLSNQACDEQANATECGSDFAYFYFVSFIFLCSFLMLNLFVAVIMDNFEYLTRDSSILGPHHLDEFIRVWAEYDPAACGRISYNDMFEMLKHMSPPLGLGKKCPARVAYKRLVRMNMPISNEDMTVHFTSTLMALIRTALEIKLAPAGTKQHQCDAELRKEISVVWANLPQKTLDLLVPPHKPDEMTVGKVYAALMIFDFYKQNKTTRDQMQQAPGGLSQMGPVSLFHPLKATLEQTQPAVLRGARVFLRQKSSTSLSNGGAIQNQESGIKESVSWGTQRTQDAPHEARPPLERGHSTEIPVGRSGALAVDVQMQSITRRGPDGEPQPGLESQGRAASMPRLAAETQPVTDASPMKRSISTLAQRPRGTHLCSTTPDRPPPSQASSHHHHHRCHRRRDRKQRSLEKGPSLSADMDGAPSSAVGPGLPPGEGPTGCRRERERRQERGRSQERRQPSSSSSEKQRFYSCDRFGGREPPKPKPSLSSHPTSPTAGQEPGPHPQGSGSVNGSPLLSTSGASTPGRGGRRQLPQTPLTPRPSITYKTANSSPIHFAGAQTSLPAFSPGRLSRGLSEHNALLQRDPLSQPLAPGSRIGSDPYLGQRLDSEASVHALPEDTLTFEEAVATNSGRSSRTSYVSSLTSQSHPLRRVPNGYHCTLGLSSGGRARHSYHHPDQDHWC
Sequence of human Cav2.2 (P54289 25-956 partner limits assumed): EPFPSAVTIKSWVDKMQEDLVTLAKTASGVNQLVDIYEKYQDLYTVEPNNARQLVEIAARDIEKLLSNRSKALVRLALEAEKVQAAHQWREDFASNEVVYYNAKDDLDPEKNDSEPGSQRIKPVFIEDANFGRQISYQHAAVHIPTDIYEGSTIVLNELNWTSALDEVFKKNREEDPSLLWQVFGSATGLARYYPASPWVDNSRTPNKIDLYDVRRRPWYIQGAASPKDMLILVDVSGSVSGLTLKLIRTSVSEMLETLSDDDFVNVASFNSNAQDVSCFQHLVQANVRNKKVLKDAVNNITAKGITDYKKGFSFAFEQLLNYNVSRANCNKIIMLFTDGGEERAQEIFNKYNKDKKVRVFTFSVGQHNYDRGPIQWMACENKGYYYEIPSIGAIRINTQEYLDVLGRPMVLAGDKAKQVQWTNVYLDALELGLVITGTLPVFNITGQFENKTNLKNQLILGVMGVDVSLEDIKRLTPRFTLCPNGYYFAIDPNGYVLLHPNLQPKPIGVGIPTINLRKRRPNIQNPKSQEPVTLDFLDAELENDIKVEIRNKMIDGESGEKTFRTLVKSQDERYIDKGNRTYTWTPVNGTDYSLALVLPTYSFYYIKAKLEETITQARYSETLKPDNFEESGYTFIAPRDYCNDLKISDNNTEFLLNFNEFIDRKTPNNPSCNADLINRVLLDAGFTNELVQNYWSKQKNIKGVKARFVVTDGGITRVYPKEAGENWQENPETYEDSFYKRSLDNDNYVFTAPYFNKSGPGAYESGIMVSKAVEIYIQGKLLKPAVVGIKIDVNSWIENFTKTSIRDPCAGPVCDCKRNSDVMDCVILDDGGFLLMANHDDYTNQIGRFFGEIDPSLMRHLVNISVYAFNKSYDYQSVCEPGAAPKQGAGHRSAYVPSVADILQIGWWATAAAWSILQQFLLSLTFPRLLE
Sequence of human Cav2.2 (P54289 957-1103 partner limits assumed): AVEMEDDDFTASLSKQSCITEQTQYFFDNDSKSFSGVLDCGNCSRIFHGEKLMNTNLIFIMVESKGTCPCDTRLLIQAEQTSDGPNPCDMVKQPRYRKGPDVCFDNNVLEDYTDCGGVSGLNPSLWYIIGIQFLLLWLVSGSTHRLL
Sequence of human Cav2.2 (P54284 whole entry partner): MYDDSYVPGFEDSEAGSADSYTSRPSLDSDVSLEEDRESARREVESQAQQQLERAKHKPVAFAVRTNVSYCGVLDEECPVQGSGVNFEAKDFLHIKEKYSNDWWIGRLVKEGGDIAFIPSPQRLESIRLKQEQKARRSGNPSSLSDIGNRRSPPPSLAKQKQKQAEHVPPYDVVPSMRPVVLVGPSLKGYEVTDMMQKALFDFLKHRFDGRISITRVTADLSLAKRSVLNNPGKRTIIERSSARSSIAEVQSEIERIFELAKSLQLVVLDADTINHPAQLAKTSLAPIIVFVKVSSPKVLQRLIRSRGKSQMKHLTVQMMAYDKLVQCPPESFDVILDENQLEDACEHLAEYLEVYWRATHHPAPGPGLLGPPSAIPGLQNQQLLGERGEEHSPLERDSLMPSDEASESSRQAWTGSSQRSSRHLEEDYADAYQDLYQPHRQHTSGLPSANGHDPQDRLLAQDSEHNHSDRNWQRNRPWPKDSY

IC50 (human Cav2.2)	Structure (SMILES)	inhibition in vivo at 30 mg/kg (Sprague Dawley rats [1])	inhibition in vivo at 30 mg/kg (Sprague Dawley rats [2])
2.86 µM	CN[C@@H](CC(C)C)C(=O)N[C@H]1CC[C@@H]2CN(c3ccc(C(F)(F)F)cn3)C[C@@H]21 [Example 600, N^2-methyl-N-{(3aR,4S,6aS)-2-[5-(trifluoromethyl)pyridin-2-yl]octahydrocyclopenta[c]pyrrol-4-yl}-L-leucinamide]	40%	63%
0.52 µM	O=C(N[C@H]1CC[C@@H]2CN(c3cccc(C(F)(F)F)n3)C[C@@H]21)[C@@H]1C[C@@H]2CCCC[C@@H]2N1 [Example 593, (2S,3aS,7aS)-N-{(3aR,4S,6aS)-2-[6-(trifluoromethyl)pyridin-2-yl]octahydrocyclopenta[c]pyrrol-4-yl}octahydro-1H-indole-2-carboxamide]	–	76%
2.57 µM	O=C(N[C@H]1CC[C@@H]2CN(c3cccc(C(F)(F)F)n3)C[C@@H]21)[C@@H]1CCCN1 [Example 598, N-{(3aR,4S,6aS)-2-[6-(trifluoromethyl)pyridin-2-yl]octahydrocyclopenta[c]pyrrol-4-yl}-L-prolinamide]	–	54%
0.39 µM	CN[C@@H](CC(C)(C)C)C(=O)N[C@H]1CC[C@@H]2CN(c3cccc(C(F)(F)F)n3)C[C@@H]21 [Example 587, N^2,4-dimethyl-N-{(3aR,4S,6aS)-2-[6-(trifluoromethyl)pyridin-2-yl]octahydrocyclopenta[c]pyrrol-4-yl}-L-leucinamide]	–	16%
